Source: patent US12636319B2, “Pharmaceutical composition for preventing or treating atopic disease containing Akkermansia muciniphila strain” (ENTEROBIOME INC., priority 2020, dated 2026)
Values after ≈ are worked out from the molar mass of the structure shown.

How the values were obtained:
[1] = system: Akkermansia muciniphila ATCC BAA-835; test: MIC by CLSI broth microdilution, type strain; type: cell-based; conditions: ATCCBAA835, test strain ATCC BAA-835
[2] = system: Bacteroides thetiotaomicron ATCC 29741; test: MIC by CLSI broth microdilution, QC strain; type: cell-based
[3] = system: Akkermansia muciniphila EB-AMDK19; test: MIC by CLSI broth microdilution, isolated strain; type: cell-based; conditions: EBAMDK19, test strain EB-AMDK19
[4] = system: DNCB-induced atopic dermatitis in NC/Nga mice; test: Scratching frequency in DNCB-induced atopic dermatitis; type: in vivo, mouse; conditions: scratching for 10 minutes, day before end; compared to the atopic dermatitis-induced group
Protocol: (§1) The Akkermansia muciniphila ATCC BAA-835 strain and Akkermansia muciniphila EB-AMDK19 live bacteria used in this experiment were prepared at a concentration of 1×10^8 CFU/150 μl PBS (25% glycerol, 0.05% cysteine/PBS).
(§2) To observe atopic dermatitis lesions, 6-week-old NC/Nga mice (weighed about 21 to 25 g, SLC, Inc., Japan) were purchased from Daehan Biolink Co., Ltd. (Chungbuk, Korea). Animal tests were carried out in accordance with the Animal use and Care Protocol of the Institutional Animal Care and Use Committee (IACUC). The animals were acclimated for one week, and then raised for 9 weeks at a constant temperature of 22° C. and a relative humidity of 50 to 60% with a 12-hr light/12-hr dark cycle.
(§3) The backs of 6-week-old NC/Nga mice were shaved clean, and then left to stand for 24 hours so that fine wounds of the skin were healed. 1% 2,4-dinitrochlorobenzene (DNCB) solution (Sigma-Aldrich Korea) was applied to the back of each mouse twice a week for 3 weeks to induce an immune response, and then 0.5% DNCB solution was applied twice a week to induce contact dermatitis. […]
The day before the end of the experiment, the frequency of scratching the affected area due to itching was measured. For measurement of the frequency of scratching, each mouse was acclimated for 10 minutes, and then the frequency of scratching for 10 minutes was measured using a counter.

IgE = test: Serum IgE concentration by ELISA; type: in vivo, mouse
Protocol: as §1, §2, §3
At the end of the experiment, each of the mice was anesthetized with CO2 and blood was collected by cardiac puncture. The collected blood was centrifuged at 10,000 rpm for 5 minutes to separate the serum, and the serum IgE concentration was measured. […]

[5] = system: DNCB-induced atopic dermatitis in NC/Nga mice; test: Ear edema (ear thickness) in DNCB-induced atopic dermatitis; type: in vivo, mouse; conditions: at 6 weeks; normal group 0.55 mm, atopic dermatitis-induced group 1.50 mm
Protocol: as §1, §2, §3
After severe atopic dermatitis was induced, the mice after completion of the experiment were sacrificed by anesthetizing with CO2, and then the degree of edema of both ears was measured by the velocity transformation technique using a thickness gauge (Digimatic thickness gauge, 547-301, Mitutoyo, Japan).

Th2/Th1 cytokines = test: Ratio of Th2/Th1 serum cytokines; type: in vivo, mouse; conditions: compared to the atopic dermatitis-induced group
Protocol: as §1
as §2, with “cycle. […]” for “cycle.”
At the end of the experiment, the mice were anesthetized with CO2, and blood was collected by cardiac puncture. […] The concentrations of IL-4, IL-12, IFN-γ and IL-6 cytokines were measured using an ELISA kit (Invitrogen, CA, USA), and the results of the measurement are shown in FIGS. 17(A), 17(B), 18(A), and 18(B).
From an immunological point of view, atopic dermatitis is a disease caused by an excessive imbalance between Th1 and Th2 immune responses. Thus, the cytokine concentrations measured as described above were expressed as the ratio of Th2/Th1 cytokines, and the results are shown in FIGS. 19(A), 19(B), 20(A), and 20(B).

[6] = system: DNCB-induced atopic dermatitis in NC/Nga mice; test: Spleen weight in DNCB-induced atopic dermatitis; type: in vivo, mouse; conditions: end of experiment; compared to the atopic dermatitis-induced group
Protocol: as §1, §2
(§4) The backs of 6-week-old NC/Nga mice were shaved clean, and then left to stand for 24 hours so that fine wounds of the skin were healed. […]
Thus, the weight of the spleen was measured to observe the effect of the composition for preventing atopic dermatitis on the immune organs of NC/Nga mice with atopic dermatitis induced by DNCB. […] The collected spleen tissues were washed with physiological saline, and then the sizes thereof were visually observed and the weights thereof were measured using a microbalance.

[7] = system: DNCB-induced atopic dermatitis in NC/Nga mice; test: Dermatitis score (modified SCORAD) in DNCB-induced atopic dermatitis; type: in vivo, mouse; conditions: week 6, compared to the atopic dermatitis-induced group; oral daily
Protocol: as §1, §2, §4
After atopic dermatitis was induced by DNCB, treatment was performed by administering a preparation containing each of dexamethasone (DEX), the ATCC BAA-835 strain and the EB-AMDK19 strain for 6 weeks. […] Skin dryness, edema, erythema/hemorrhage, and erosion/excoriation were scored as follows: no symptoms=0, weak symptoms=1, moderate symptoms=2, and severe symptoms=3.

| Compound | MIC [1] | MIC ([2]; Bacteroides, ATCC29741) | MIC [3] | also measured |
| --- | --- | --- | --- | --- |
| O=C(N[C@H](CO)[C@H](O)c1ccc([N+](=O)[O-])cc1)C(Cl)Cl [CHL, chloramphenicol] | 4 µg/mL (≈ 12.4 µM) | 8 µg/mL (≈ 24.8 µM) | 4 µg/mL (≈ 12.4 µM) | – |
| CCC[C@@H]1C[C@@H](C(=O)N[C@@H]([C@H]2O[C@H](SC)[C@H](O)[C@@H](O)[C@H]2O)[C@H](C)Cl)N(C)C1 [CLI, clindamycin] | ≤ 0.125 µg/mL | – | 4 µg/mL (≈ 9.41 µM) | – |
| CO/N=C(\C(=O)N[C@@H]1C(=O)N2C(C(=O)O)=CCS[C@H]12)c1csc(N)n1 [CTZ, ceftizoxime] | 2 µg/mL (≈ 5.22 µM) | 16 µg/mL (≈ 41.7 µM) | 1 µg/mL (≈ 2.61 µM) | – |
| C[C@@H]1C[C@H]2[C@@H]3CCC4=CC(=O)C=C[C@]4(C)[C@@]3(F)[C@@H](O)C[C@]2(C)[C@@]1(O)C(=O)CO [DEX, dexamethasone] | – | – | – | decrease in scratching frequency [4]: about 59.4%; serum IgE decrease (IgE; compared to the atopic dermatitis-induced group): 40.70%; serum IgE concentration (IgE; end of experiment, ELISA): 11891.34 ng/mL; ear edema [5]: 1.00 mm; decrease of IL-6/IFN-γ ratio (Th2/Th1 cytokines): 12.7%; decrease of IL-6/IL-12 ratio (Th2/Th1 cytokines): 34.5%; decrease in spleen weight [6]: 23.3%; decrease in dermatitis score [7]: 38.4% |
| C[C@@H](O)[C@H]1C(=O)N2C(C(=O)O)=C(S[C@@H]3CN[C@H](C(=O)N(C)C)C3)[C@H](C)[C@H]12 [MEM, meropenem] | 1 µg/mL (≈ 2.61 µM) | 0.5 µg/mL (≈ 1.3 µM) | 0.5 µg/mL (≈ 1.3 µM) | – |
| Cc1ncc([N+](=O)[O-])n1CCO [MTZ, metronidazole] | ≤ 0.25 µg/mL | 2 µg/mL (≈ 11.7 µM) | 0.5 µg/mL (≈ 2.92 µM) | – |
| COc1c(N2C[C@@H]3CCCN[C@@H]3C2)c(F)cc2c(=O)c(C(=O)O)cn(C3CC3)c12 [MXF, moxifloxacin] | > 32 µg/mL | 8 µg/mL (≈ 19.9 µM) | > 32 µg/mL | – |
| Piperacillin-tazobactam [PTZ] | – | – | – | MIC ([2]; QC strain ATCC 29741, broth microdilution, CLSI): 8/4 |
